Source: patent US20240343704A1, “HALO-SUBSTITUTED AMINO PYRIDINE COMPOUNDS AS INHIBITORS OF THE HAEMATOPOIETIC PROGENITOR KINASE 1 (HPK1)” (priority 2021, published 2024)
Where two headings read alike, the source gives them in different places.

What was measured:
[1] = target: T1, Recombinant (1-346) HPK1 (h) (Homo sapiens, UniProt Q92918); assay: HPK1 Human STE Kinase Enzymatic Radiometric Assay; type: biochemical
T1 construct: Recombinant (1-346) HPK1 (h) is incubated with 8 mM MOPS pH 7.0
T1 sequence (Q92918 1-346): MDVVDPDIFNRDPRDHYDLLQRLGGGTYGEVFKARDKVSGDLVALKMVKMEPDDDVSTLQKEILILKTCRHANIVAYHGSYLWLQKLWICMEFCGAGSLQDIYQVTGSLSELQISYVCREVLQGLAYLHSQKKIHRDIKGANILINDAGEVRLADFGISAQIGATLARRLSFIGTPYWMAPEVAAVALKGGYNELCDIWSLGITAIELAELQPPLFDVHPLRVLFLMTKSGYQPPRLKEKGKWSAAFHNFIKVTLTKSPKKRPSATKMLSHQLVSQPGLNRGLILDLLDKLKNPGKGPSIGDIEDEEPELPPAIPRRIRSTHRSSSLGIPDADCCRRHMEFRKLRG
Protocol: A stock solution of 10 mM of test compound is prepared in DMSO. The compound plate was prepared by 3-fold and 9-point serial dilutions. […] The reaction is initiated by The addition of the Mg/ATP mix. After incubation for 40 minutes at RT, the reaction is stopped by the addition of phosphoric acid to a concentration of 0.5%.

Lck (h) = Lck (h) (Homo sapiens, UniProt P06239); assay: Lck Human  Kinase Enzymatic Radiometric Assay; type: biochemical
How it was run: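 Substrate 33P-incorporation measured by scintillation counting after spotting on P30 filtermat and phosphoric acid washes. Human Lck reacted 40 min at RT in 50 mM Tris pH 7.5 with 10 mM MgAcetate, [gamma-33P]-ATP, 250 uM Cdc2 peptide, 0.1 mM EGTA and 0.1 mM Na3VO4.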

Lck (h), sequence (P06239 whole entry): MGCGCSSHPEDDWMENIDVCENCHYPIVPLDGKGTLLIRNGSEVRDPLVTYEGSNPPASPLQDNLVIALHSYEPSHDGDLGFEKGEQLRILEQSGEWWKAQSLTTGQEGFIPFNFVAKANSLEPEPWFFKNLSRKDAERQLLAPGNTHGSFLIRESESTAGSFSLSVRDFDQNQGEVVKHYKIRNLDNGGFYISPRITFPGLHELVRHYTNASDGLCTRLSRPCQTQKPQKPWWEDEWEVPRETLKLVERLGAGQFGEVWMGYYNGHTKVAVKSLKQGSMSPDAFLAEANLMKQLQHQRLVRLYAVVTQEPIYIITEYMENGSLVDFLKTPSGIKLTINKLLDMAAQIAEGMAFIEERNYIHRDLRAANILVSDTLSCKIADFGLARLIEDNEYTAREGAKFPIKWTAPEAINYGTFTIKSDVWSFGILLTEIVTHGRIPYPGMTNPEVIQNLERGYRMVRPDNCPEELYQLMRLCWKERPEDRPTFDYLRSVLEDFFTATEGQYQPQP

Structure (SMILES)	IC50 ([1]; read-out: HPK1 IC50 nM Range*) [nM]	IC50 (Lck (h); read-out: Lck IC50 nM Range*) [nM]	IC50 [1] [nM]	IC50 (Lck (h)) [nM]
CC(C)N1CCC(C)(c2ccc(-c3cc(-c4ccc5c(c4)CCNC5=O)c(N)nc3F)cc2)C1 (stereo not shown) [I-164, 6-(2-amino-6-fluoro-5-(4-(1-isopropyl-3-methylpyrrolidin-3-yl)phenyl)pyridin-3-yl)-3,4-dihydroisoquinolin-1(2H)-one]	0.1 to 10	> 1000		
COCCN1C[C@@H]2C[C@]2(c2ccc(-c3cc(-c4ccc5c(c4)CCNC5=O)c(N)nc3F)cc2)C1 [I-165, 6-(2-amino-6-fluoro-5-(4-((1S,5R)-3-(2-methoxyethyl)-3-azabicyclo[3.1.0]hexan-1-yl)phenyl)pyridin-3-yl)-3,4-dihydroisoquinolin-1(2H)-one]	0.1 to 10	> 1000		
COCCN1CCC(c2ccc(-c3cc(-c4ccc5c(c4)CCNC5=O)c(N)nc3Cl)cc2)CC1 [I-166, 6-(2-amino-6-chloro-5-(4-(1-(2-methoxyethyl)piperidin-4-yl)phenyl)pyridin-3-yl)-3,4-dihydroisoquinolin-1(2H)-one]	11 to 100	> 1000		
COCCN1CCC(O)(c2ccc(-c3cc(-c4ccc5c(c4)CCNC5=O)c(N)nc3F)cc2)CC1 [I-167, 6-(2-amino-6-fluoro-5-(4-(4-hydroxy-1-(2-methoxyethyl)piperidin-4-yl)phenyl)pyridin-3-yl)-3,4-dihydroisoquinolin-1(2H)-one]	0.1 to 10	> 1000		
Nc1nc(Cl)c(-c2ccc(N3CCN(CC(F)F)CC3)cc2)cc1-c1ccc2c(c1)CCNC2=O [I-168, 6-(2-amino-6-chloro-5-(4-(4-(2,2-difluoroethyl)piperazin-1-yl)phenyl)pyridin-3-yl)-3,4-dihydroisoquinolin-1(2H)-one]	11 to 100	> 1000		
CC(C)N1CCN(c2ccc(-c3cc(-c4ccc5c(c4)CCNC5=O)c(N)nc3Cl)cc2)CC1 [I-169, 6-(2-amino-6-chloro-5-(4-(4-isopropylpiperazin-1-yl)phenyl)pyridin-3-yl)-3,4-dihydroisoquinolin-1(2H)-one]	11 to 100	> 1000		
CC(C)N1CCN(c2ccc(-c3cc(-c4cc5c(cc4F)C(=O)NCC5)c(N)nc3F)nc2)CC1 [I-170, 6-(6′-amino-2′-fluoro-5-(4-isopropylpiperazin-1-yl)-[2,3′-bipyridin]-5′-yl)-7-fluoro-3,4-dihydroisoquinolin-1(2H)-one]	0.1 to 10	> 1000		
CC(C)N1CC2C(F)(F)C2(c2ccc(-c3cc(-c4ccc5c(c4)CCNC5=O)c(N)nc3F)cc2)C1 (stereo not shown) [I-171, 6-(2-amino-5-(4-(6,6-difluoro-3-isopropyl-3-azabicyclo[3.1.0]hexan-1-yl)phenyl)-6-fluoropyridin-3-yl)-3,4-dihydroisoquinolin-1(2H)-one]	0.1 to 10	> 1000		
Nc1nc(F)c(-c2ccc(N3CCNCC3)cc2)cc1-c1cc2c(cc1F)C(=O)NCC2 [I-172, 6-(2-amino-6-fluoro-5-(4-(piperazin-1-yl)phenyl)pyridin-3-yl)-7-fluoro-3,4-dihydroisoquinolin-1(2H)-one 2,2,2-trifluoroacetate]	0.1 to 10	> 1000		
CC(C)(C)OC(=O)N1CCC2(CC1)OCc1cc(-c3cc(-c4ccc5c(c4)CCNC5=O)c(N)nc3F)ccc1O2 [I-173, tert-butyl 6-(6-amino-2-fluoro-5-(1-oxo-1,2,3,4-tetrahydroisoquinolin-6-yl)pyridin-3-yl)-4H-spiro[benzo[d][1,3]dioxine-2,4′-piperidine]-1′-carboxylate]			11 to 100	> 1000
CC(C)(C)OC(=O)N1CCC2(CC1)CC(=O)c1cc(-c3cc(-c4ccc5c(c4)CCNC5=O)c(N)nc3F)ccc1O2 [I-174, tert-butyl 6-(6-amino-2-fluoro-5-(1-oxo-1,2,3,4-tetrahydroisoquinolin-6-yl)pyridin-3-yl)-4-oxospiro[chromane-2,4′-piperidine]-1′-carboxylate]	11 to 100	> 1000		
CC(C)(C)OC(=O)N1CCC2(CCc3cc(-c4cc(-c5ccc6c(c5)CCNC6=O)c(N)nc4F)ccc3O2)CC1 [I-175, tert-butyl 6-(6-amino-2-fluoro-5-(1-oxo-1,2,3,4-tetrahydroisoquinolin-6-yl)pyridin-3-yl)spiro[chromane-24′-piperidine]-1′-carboxylate]	101 to 1000	> 1000		
CC(C)(C)OC(=O)N1CCC(Oc2ccc(-c3cc(-c4ccc5c(c4)CCNC5=O)c(N)nc3F)cc2C#N)CC1 [I-176, tert-butyl 4-(4-(6-amino-2-fluoro-5-(1-oxo-1,2,3,4-tetrahydroisoquinolin-6-yl)pyridin-3-yl)-2-cyanophenoxy)piperidine-1-carboxylate]	11 to 100	> 1000		
CC(C)(C)OC(=O)N1CCN(c2ccc(-c3cc(-c4ccc5c(c4)CCNC5=O)c(N)nc3F)cc2C(F)(F)F)CC1 [I-177, tert-butyl 4-(4-(6-amino-2-fluoro-5-(1-oxo-1,2,3,4-tetrahydroisoquinolin-6-yl)pyridin-3-yl)-2-(trifluoromethyl)phenyl)piperazine-1-carboxylate]	101 to 1000	> 1000		
C[C@@H]1C[C@@H](Oc2ccc(-c3cc(-c4ccc5c(c4)CCNC5=O)c(N)nc3F)cc2)C[C@H](C)N1 [I-178, 6-(2-amino-5-(4-(((2S,4s,6R)-2,6-dimethylpiperidin-4-yl)oxy)phenyl)-6-fluoropyridin-3-yl)-3,4-dihydroisoquinolin-1(2H)-one]	0.1 to 10	> 1000		
Nc1nc(F)c(-c2ccc(OC3CCNCC3)c(F)c2)cc1-c1ccc2c(c1)CCNC2=O [I-179, 6-(2-amino-6-fluoro-5-(3-fluoro-4-(piperidin-4-yloxy)phenyl)pyridin-3-yl)-3,4-dihydroisoquinolin-1(2H)-one]	0.1 to 10	> 1000		
Nc1nc(F)c(-c2ccc(O[C@@H]3CCCNC3)cc2)cc1-c1cc2c(cc1F)C(=O)NCC2 [I-180, (R)-6-(2-amino-6-fluoro-5-(4-(piperidin-3-yloxy)phenyl)pyridin-3-yl)-7-fluoro-3,4-dihydroisoquinolin-1(2H)-one]	11 to 100	> 1000		
Nc1nc(F)c(-c2ccc3c(c2)COC2(CCNCC2)O3)cc1-c1ccc2c(c1)CCNC2=O [I-181, 6-(2-amino-6-fluoro-5-(4H-spiro[benzo[d][1,3]dioxine-2,4′-piperidin]-6-yl)pyridin-3-yl)-3,4-dihydroisoquinolin-1(2H)-one]			0.1 to 10	> 1000
Nc1nc(F)c(-c2ccc3c(c2)C(=O)CC2(CCNCC2)O3)cc1-c1ccc2c(c1)CCNC2=O [I-182, 6-(6-amino-2-fluoro-5-(1-oxo-1,2,3,4-tetrahydroisoquinolin-6-yl)pyridin-3-yl)spiro[chromane-2,4′-piperidin]-4-one 2,2,2-trifluoroacetate]	0.1 to 10	> 1000		
Nc1nc(F)c(-c2ccc3c(c2)CCC2(CCNCC2)O3)cc1-c1ccc2c(c1)CCNC2=O [I-183, 6-(2-amino-6-fluoro-5-(spiro[chromane-2,4′-piperidin]-6-yl)pyridin-3-yl)-3,4-dihydroisoquinolin-1(2H)-one]	0.1 to 10	> 1000		
N#Cc1cc(-c2cc(-c3ccc4c(c3)CCNC4=O)c(N)nc2F)ccc1OC1CCNCC1 [I-184, 5-(6-amino-2-fluoro-5-(1-oxo-1,2,3,4-tetrahydroisoquinolin-6-yl)pyridin-3-yl)-2-(piperidin-4-yloxy)benzonitrile]	11 to 100	> 1000		
Nc1nc(F)c(-c2ccc(N3CCNCC3)c(C(F)(F)F)c2)cc1-c1ccc2c(c1)CCNC2=O [I-185, 6-(2-amino-6-fluoro-5-(4-(piperazin-1-yl)-3-(trifluoromethyl)phenyl)pyridin-3-yl)-3,4-dihydroisoquinolin-1(2H)-one]	0.1 to 10	> 1000		
Nc1nc(F)c(-c2ccc(OC3CCN(CC(F)(F)F)CC3)cc2)cc1-c1ccc2c(c1)CCNC2=O [I-186, 6-(2-amino-6-fluoro-5-(4-((1-(2,2,2-trifluoroethyl)piperidin-4-yl)oxy)phenyl)pyridin-3-yl)-3,4-dihydroisoquinolin-1(2H)-one]	11 to 100	> 1000		
Nc1nc(F)c(-c2ccc(OC3CCN(CCC(F)(F)F)CC3)cc2)cc1-c1ccc2c(c1)CCNC2=O [I-187, 6-(2-amino-6-fluoro-5-(4-((1-(3,3,3-trifluoropropyl)piperidin-4-yl)oxy)phenyl)pyridin-3-yl)-3,4-dihydroisoquinolin-1(2H)-one]	0.1 to 10	> 1000		
Nc1nc(F)c(-c2ccc(OC3CCN(CCCC(F)(F)F)CC3)cc2)cc1-c1ccc2c(c1)CCNC2=O [I-188, 6-(2-amino-6-fluoro-5-(4-((1-(4,4,4-trifluorobutyl)piperidin-4-yl)oxy)phenyl)pyridin-3-yl)-3,4-dihydroisoquinolin-1(2H)-one]	0.1 to 10	> 1000		
COCCN1CCC(Oc2ccc(-c3cc(-c4ccc5c(c4)CCNC5=O)c(N)nc3F)cc2)CC1 [I-189, 6-(2-amino-6-fluoro-5-(4-((1-(2-methoxyethyl)piperidin-4-yl)oxy)phenyl)pyridin-3-yl)-3,4-dihydroisoquinolin-1(2H)-one]	0.1 to 10	> 1000		
